Results from EP0726951B1, “MANUFACTURE AND USE OF POLYPEPTIDES TAGGED USING BINDING MOLECULES” (MEDICAL RESEARCH COUNCIL, priority 1993, dated 1995).

Tests used:
[1] = molecular target: T1, calmodulin (Homo sapiens, UniProt P0DP23); assay: native gel autoradiography of calmodulin with radiolabelled melatonin; type: binding; settings: 15% polyacrylamide gel, 0.5mM CaCl2, no SDS
Procedure: In order to assess this, 1µl calmodulin (lmg/ml) was incubated with 1µCi 2-[^125I]-melatonin in 9µl TBSC and run on a 15% polyacrylamide gel. The gel was as the running gel of Laemmli (Nature 1970 220 680-685), but with 0.5mM CaCl2 and no SDS in both gel and buffer.

[2] = molecular target: T1, calmodulin; settings: published value; cited from earlier work
[3] = molecular target: T1, calmodulin; settings: cited from earlier work

| Molecule | radioactive band of complex with calmodulin [1] | half-life of the calmodulin-melatonin complex [2] [min] | Ka ([3]; affinity for calmodulin) [M⁻¹] | Kd ([3]; binds calmodulin) [nM] |
| --- | --- | --- | --- | --- |
| COc1ccc2[nH]c([125I])c(CCNC(C)=O)c2c1 [2-[^125I]-melatonin] | no radioactive band was detected |  |  |  |
| COc1ccc2[nH]cc(CCNC(C)=O)c2c1 [melatonin] | no complex is detected | 2 |  |  |
| mastoparan |  |  | 3.3e+09 | 0.3 |
